Measurements taken from ChEMBL document CHEMBL5608165, “Opportunities and perspectives of small molecular phosphodiesterase inhibitors in neurodegenerative diseases” (Eur J Med Chem, 2024).

Key:
[1] = target: T1, cAMP and cAMP-inhibited cGMP 3',5'-cyclic phosphodiesterase 10A (Homo sapiens, UniProt Q9Y233); assay: Inhibition of PDE10A (unknown origin)
[2] = target: Phosphodiesterase 4 (Homo sapiens, UniProt P27815+Q08499+Q07343+Q08493); assay: Inhibition of PDE4 (unknown origin); assay type: protein assay
[3] = target: 3',5'-cyclic-AMP phosphodiesterase 4B (Homo sapiens, UniProt Q07343); assay: Inhibition of human recombinant PDE4B1 using […] as substrate preincubated with compound for 15 mins followed by substrate addition and measured after 30 mins by spectrofluorimetric analysis
[4] = target: Dual specificity calcium/calmodulin-dependent 3',5'-cyclic nucleotide phosphodiesterase 1C (Homo sapiens, UniProt Q14123); assay: Inhibition of PDE1C (unknown origin)
[5] = target: Dual specificity calcium/calmodulin-dependent 3',5'-cyclic nucleotide phosphodiesterase 1A (Homo sapiens, UniProt P54750); assay: Inhibition of human recombinant GST-tagged PDE1A
[6] = target: Dual specificity calcium/calmodulin-dependent 3',5'-cyclic nucleotide phosphodiesterase 1B (Homo sapiens, UniProt Q01064); assay: Inhibition of PDE1B (unknown origin)
[7] = target: cGMP-dependent 3',5'-cyclic phosphodiesterase (Homo sapiens, UniProt O00408); assay: Inhibition of PDE2A (unknown origin) using 3H-cGMP as substrate
[8] = target: Acetylcholinesterase (Homo sapiens, UniProt P22303); assay: Inhibition of AChE (unknown origin) using acetylthiocholine iodide as substrate by Ellman's method
[9] = target: T2, cGMP-specific 3',5'-cyclic phosphodiesterase (Homo sapiens, UniProt O76074); assay: Inhibition of PDE5A (unknown origin)
[10] = target: Histone deacetylase 1 (Homo sapiens, UniProt Q13547); assay: Inhibition of HDAC1 (unknown origin)
[11] = target: T3, High affinity cGMP-specific 3',5'-cyclic phosphodiesterase 9A (Homo sapiens, UniProt O76083); assay: Inhibition of PDE9A (unknown origin)
[12] = target: High affinity 3',5'-cyclic-AMP phosphodiesterase 7A (Homo sapiens, UniProt Q13946); assay: Inhibition of PDE7A (unknown origin)
[13] = target: Glycogen synthase kinase-3 alpha (Homo sapiens, UniProt P49840); assay: Inhibition of GSK3alpha (unknown origin)
[14] = target: 3',5'-cyclic-AMP phosphodiesterase 7B (Homo sapiens, UniProt Q9NP56); assay: Inhibition of PDE7B (unknown origin)
[15] = target: T2, cGMP-specific 3',5'-cyclic phosphodiesterase; assay: Inhibition of PDE5A1 (unknown origin) using [3H]-cGMP substrate incubated for 15 mins by liquid scintillation counting method
[16] = target: cGMP-inhibited 3',5'-cyclic phosphodiesterase 3A (Homo sapiens, UniProt Q14432); assay: Inhibition of PDE3A (unknown origin) using FAM-cAMP as substrate incubated for 45 mins by TR-FRET analysis
[17] = target: cGMP-inhibited 3',5'-cyclic phosphodiesterase 3B (Homo sapiens, UniProt Q13370); assay: Inhibition of human recombinant PDE3B using FAM-cyclic-3',5'-AMP as substrate incubated for 1 hrs by fluorescence polarization based assay
[18] = target: T1, cAMP and cAMP-inhibited cGMP 3',5'-cyclic phosphodiesterase 10A; assay: Inhibition of his-tagged recombinant human PDE10A catalytic domain extracted from Escherichia coli BL21(DE3) using [3H]-cAMP as substrate incubated for 10 mins by SPA assay
[19] = target: T3, High affinity cGMP-specific 3',5'-cyclic phosphodiesterase 9A; assay: Binding affinity to PDE9A (unknown origin) using [3H]cAMP as substrate assessed as inhibition constant incubated for 1 hr by […]
[20] = Inhibition of PDE1 (unknown origin); set-up: species or system Homo sapiens

Sequence of 3',5'-cyclic-AMP phosphodiesterase 4B (Q07343 whole entry): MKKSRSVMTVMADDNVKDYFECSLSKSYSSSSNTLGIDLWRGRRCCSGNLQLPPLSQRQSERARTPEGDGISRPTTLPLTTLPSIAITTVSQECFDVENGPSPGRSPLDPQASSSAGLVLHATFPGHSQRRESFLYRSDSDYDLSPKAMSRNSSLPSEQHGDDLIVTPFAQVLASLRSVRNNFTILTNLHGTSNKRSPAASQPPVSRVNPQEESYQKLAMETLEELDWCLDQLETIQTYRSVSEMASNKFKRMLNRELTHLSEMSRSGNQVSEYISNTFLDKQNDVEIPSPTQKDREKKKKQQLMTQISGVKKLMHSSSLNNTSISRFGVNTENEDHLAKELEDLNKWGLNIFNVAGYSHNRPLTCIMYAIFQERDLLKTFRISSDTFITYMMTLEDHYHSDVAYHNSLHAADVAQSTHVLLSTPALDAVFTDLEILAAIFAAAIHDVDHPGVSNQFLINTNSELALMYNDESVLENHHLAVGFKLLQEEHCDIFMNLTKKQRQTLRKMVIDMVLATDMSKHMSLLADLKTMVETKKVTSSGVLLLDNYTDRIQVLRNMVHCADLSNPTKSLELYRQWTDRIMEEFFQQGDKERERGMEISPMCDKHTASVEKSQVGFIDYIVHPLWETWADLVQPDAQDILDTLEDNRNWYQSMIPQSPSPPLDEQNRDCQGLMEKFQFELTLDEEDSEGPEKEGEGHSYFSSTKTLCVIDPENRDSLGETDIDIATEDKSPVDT
Sequence of Acetylcholinesterase (P22303 whole entry): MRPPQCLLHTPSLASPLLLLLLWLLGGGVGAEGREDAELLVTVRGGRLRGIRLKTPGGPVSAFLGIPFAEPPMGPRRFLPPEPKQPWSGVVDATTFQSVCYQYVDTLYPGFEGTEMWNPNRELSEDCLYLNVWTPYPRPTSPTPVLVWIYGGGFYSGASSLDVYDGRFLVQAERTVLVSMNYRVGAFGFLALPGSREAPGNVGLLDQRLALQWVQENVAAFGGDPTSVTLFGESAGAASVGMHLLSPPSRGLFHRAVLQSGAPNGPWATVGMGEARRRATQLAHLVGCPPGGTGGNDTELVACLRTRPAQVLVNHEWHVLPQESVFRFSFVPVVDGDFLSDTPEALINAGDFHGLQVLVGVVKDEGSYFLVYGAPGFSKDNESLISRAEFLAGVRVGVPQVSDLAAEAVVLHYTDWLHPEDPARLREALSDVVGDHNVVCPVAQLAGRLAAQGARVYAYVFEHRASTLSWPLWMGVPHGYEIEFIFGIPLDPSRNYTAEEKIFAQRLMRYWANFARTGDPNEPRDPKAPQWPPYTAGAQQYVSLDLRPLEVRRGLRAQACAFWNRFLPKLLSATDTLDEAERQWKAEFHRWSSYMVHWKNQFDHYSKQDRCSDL
Sequence of Dual specificity calcium/calmodulin-dependent 3',5'-cyclic nucleotide phosphodiesterase 1B (Q01064 whole entry): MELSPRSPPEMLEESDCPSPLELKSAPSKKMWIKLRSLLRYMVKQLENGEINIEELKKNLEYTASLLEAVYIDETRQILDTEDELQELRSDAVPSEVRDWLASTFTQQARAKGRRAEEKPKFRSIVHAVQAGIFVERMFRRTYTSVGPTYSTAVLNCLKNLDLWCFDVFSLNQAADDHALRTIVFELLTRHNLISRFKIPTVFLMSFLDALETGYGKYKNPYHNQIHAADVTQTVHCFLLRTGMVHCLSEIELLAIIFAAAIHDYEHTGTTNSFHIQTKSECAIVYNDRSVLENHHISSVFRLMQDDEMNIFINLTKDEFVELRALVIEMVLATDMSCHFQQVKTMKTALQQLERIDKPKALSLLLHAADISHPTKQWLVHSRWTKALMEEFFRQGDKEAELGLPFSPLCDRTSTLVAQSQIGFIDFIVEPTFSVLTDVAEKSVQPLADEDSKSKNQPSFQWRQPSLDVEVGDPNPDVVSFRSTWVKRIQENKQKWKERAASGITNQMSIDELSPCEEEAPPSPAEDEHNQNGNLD
Sequence of High affinity 3',5'-cyclic-AMP phosphodiesterase 7A (Q13946 whole entry): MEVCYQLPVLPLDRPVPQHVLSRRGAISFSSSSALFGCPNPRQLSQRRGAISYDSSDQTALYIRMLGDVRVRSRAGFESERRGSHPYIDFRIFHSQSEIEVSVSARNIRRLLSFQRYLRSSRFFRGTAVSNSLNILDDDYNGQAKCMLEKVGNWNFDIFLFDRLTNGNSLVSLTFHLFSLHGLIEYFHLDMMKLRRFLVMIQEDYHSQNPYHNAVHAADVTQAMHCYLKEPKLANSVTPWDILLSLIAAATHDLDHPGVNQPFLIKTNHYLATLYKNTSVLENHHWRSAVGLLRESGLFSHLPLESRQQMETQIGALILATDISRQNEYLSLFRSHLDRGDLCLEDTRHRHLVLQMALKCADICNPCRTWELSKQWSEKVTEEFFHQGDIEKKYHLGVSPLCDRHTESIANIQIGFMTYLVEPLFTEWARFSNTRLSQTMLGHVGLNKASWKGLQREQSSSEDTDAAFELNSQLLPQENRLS
T3 sequence (O76083 whole entry): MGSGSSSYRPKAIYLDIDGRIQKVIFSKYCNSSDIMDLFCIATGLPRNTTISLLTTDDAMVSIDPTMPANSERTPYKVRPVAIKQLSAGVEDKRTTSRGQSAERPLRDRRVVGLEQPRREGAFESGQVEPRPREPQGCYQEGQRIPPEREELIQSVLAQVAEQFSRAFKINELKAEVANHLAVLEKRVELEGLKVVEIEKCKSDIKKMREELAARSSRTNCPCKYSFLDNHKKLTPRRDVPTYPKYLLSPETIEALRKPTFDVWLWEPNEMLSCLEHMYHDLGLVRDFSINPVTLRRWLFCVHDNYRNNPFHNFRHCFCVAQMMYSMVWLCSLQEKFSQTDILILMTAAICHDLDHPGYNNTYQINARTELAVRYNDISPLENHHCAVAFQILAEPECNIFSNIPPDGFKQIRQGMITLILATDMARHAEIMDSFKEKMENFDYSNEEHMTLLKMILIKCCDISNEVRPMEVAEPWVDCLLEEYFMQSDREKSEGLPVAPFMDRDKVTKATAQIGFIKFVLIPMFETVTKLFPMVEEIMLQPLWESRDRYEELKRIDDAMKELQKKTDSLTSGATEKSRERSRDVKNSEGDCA
Sequence of Dual specificity calcium/calmodulin-dependent 3',5'-cyclic nucleotide phosphodiesterase 1C (Q14123 whole entry): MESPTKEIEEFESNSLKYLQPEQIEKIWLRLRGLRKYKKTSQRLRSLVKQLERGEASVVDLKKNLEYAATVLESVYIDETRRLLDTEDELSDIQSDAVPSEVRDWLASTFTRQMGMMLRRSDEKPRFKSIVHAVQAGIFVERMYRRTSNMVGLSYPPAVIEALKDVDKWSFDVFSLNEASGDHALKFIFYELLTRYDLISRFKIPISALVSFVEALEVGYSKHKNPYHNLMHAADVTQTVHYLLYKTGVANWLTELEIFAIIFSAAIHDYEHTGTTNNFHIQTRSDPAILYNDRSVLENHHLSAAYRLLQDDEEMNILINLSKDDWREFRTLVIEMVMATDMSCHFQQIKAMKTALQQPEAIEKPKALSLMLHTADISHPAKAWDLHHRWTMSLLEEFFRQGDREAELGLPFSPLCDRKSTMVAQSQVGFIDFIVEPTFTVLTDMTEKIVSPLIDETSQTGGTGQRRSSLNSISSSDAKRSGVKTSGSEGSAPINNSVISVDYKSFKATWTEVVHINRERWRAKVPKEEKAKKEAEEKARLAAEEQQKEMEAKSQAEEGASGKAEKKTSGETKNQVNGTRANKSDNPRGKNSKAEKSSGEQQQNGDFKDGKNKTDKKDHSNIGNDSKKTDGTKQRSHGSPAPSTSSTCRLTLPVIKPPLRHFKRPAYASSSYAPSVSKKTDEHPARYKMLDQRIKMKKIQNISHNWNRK
T1 sequence (Q9Y233 whole entry): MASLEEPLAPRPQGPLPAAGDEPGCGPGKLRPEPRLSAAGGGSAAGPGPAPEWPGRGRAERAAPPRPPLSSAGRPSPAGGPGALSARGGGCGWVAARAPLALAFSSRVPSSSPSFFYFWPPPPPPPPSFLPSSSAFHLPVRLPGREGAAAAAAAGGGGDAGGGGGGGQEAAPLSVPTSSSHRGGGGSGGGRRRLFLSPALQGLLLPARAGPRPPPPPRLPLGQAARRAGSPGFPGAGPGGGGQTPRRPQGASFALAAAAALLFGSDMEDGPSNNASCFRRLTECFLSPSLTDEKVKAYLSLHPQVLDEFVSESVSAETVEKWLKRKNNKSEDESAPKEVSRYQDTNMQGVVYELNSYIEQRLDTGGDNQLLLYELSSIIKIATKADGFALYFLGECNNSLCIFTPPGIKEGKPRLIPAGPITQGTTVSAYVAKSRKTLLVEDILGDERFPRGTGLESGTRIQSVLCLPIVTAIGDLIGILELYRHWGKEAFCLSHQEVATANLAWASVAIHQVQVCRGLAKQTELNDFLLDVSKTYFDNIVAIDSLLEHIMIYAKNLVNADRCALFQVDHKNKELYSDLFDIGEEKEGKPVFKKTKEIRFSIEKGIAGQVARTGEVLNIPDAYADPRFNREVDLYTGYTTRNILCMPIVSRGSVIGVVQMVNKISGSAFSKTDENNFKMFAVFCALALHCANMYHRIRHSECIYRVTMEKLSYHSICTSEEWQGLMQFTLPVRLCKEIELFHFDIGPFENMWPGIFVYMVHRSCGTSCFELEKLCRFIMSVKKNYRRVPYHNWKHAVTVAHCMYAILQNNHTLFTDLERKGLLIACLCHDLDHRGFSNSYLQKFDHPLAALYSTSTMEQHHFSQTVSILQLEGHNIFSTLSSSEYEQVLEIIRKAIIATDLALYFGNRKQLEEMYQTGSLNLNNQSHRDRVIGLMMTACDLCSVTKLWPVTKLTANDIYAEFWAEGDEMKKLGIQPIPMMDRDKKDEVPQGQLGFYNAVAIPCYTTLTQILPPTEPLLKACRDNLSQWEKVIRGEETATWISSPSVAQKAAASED

COc1cc2ncnc(NCCc3c[nH]c4ccc(O)cc34)c2cc1OC
IC50 [1]: 0.64 nM

O=C(Nc1ccccc1Cl)c1ccc(OC(F)F)c(OCC2CC2)c1
IC50 [2]: 90 nM
IC50 [3]: 144 nM

COc1ccc2c(N(C)[C@]3(C)CCO[C@H]3C)ncnc2c1OC
IC50 [4]: 46.8 nM
IC50 [5]: 57.5 nM
IC50 [6]: 13.8 nM

CC(c1cccc2ccccc12)n1cnc2c(=O)[nH]c(Cc3ccccc3)nc21 (stereo unspecified)
IC50 [7]: 570 nM

COc1ccc([C@@H]2c3[nH]c4ccccc4c3C[C@H]3C(=O)N(CCC4CCN(Cc5ccccc5)CC4)CC(=O)N23)cc1
IC50 [8]: 3200 nM
IC50 [9]: 3.2 nM

CCCc1nc(C)c2c(=O)[nH]c(-c3cc(CC4CC(C(=O)NO)C4)ccc3OCC)nn12 (stereo unspecified)
IC50 [10]: 208 nM

CCCCn1c(=O)n(CC)c(=O)c2[nH]c(-c3cccc(C(C)C)c3)cc21
IC50 [11]: 38000 nM

c1ccc(-c2n/c(=N/CCN3CCOCC3)sn2-c2ccccc2)cc1
IC50 [12]: 1590 nM
IC50 [13]: 880 nM

CC(C)=CCc1c2c(c3occ(-c4ccc(OS(C)(=O)=O)c(OS(C)(=O)=O)c4)c(=O)c3c1O)CCC(C)(C)O2
IC50 [11]: 5.3 nM

CCc1cc(C#N)cc2c(NCc3ccc(OC)c(Cl)c3)c(COCCF)cnc12
IC50 [9]: 33.4 nM

COc1ccc(/C(CSc2nc3ccccc3c(=O)n2-c2ccccc2)=N\N)cc1
IC50 [12]: 1150 nM

O=C1NC(=O)/C(=C/c2ccc(OCCNc3nc4c(cnn4C4CCCC4)c(=O)[nH]3)c(F)c2)S1
IC50 [11]: 1.1 nM

O=C1[C@H]2Cc3c([nH]c4ccccc34)[C@@H](c3ccc4c(c3)OCO4)N2C(=O)CN1CCC1CCN(Cc2ccccc2)CC1
IC50 [8]: 150 nM
IC50 [9]: 0.15 nM

CCCc1nn(C)c2c(=O)[nH]c(-c3cc(Cc4ccc(C(=O)Nc5ccccc5N)cc4)ccc3OCC)nc12
IC50 [10]: 180 nM

C=CCn1cc(-c2nc3ccccc3nc2Cl)c2cc(OC)ccc21
IC50 [3]: 10.6 nM

O=C(Nc1ccccc1Cl)c1ccc(OC(F)F)c(OC2CCCC2)c1
IC50 [2]: 30 nM
IC50 [3]: 95 nM

CC(C)CCn1c2c(c3c(O)cc(O)cc31)CCn1c-2nc2ccccc2c1=O
IC50 [9]: 36 nM

Cc1ccc([N+](=O)[O-])cc1S(=O)(=O)N(C)C
IC50 [12]: 150 nM
IC50 [14]: 12100 nM

C[C@@H](NC(=O)/C=C/c1cccc(O)c1)c1nc2c(cnn2C2CCCC2)c(=O)[nH]1
IC50 [11]: 58 nM

COc1cc2c(cc1OC)C(=O)C(CC1CCN(Cc3ccccc3)CC1)C2 (stereo unspecified) [DONEPEZIL]
IC50 [15]: 11 nM

O=C1CCc2cc(OCCCCc3nnnn3C3CCCCC3)ccc2N1 [CILOSTAZOL]
IC50 [16]: 27 nM
IC50 [17]: 50 nM

C[C@@H]1CC(Cc2ccc(C(=O)NO)cc2)C[C@H]1c1nc2c(cnn2C2CCCC2)c(=O)[nH]1 (stereo partly specified)
IC50 [11]: 107 nM

Cn1c(OC[C@H]2CC[C@H](C(F)(F)F)CC2)nn2c(C3CCOCC3)ncc2c1=O
IC50 [4]: 431 nM
IC50 [6]: 43.9 nM

O=c1c(/C=C/c2nc3cc(Cl)ccc3n2-c2ccccc2)coc2ccc(F)cc12
IC50 [18]: 9.5 nM

COc1ccc(CNc2c(COCCF)cnc3c(C4CC4)cc(C#N)cc23)cc1Cl
IC50 [9]: 8 nM

CCCn1c(=O)c2[nH]c(-c3cccc(C(C)C)c3)cc2n(-c2ccc3c(c2)CNC3C(=O)OC)c1=O (stereo unspecified)
Ki [19]: 1.53 nM

O=C(NCCc1ccccc1)c1cnn2c(=O)cc(-c3ccccc3)[nH]c12
IC50 [7]: 1.9 nM

O=C1[C@@H]2Cc3c([nH]c4ccccc34)[C@@H](c3ccc4c(c3)OCO4)N2C(=O)CN1CCC1CCN(Cc2ccccc2)CC1
IC50 [8]: 1630 nM
IC50 [9]: 1.63 nM

CCOC(=O)C1=C[C@]2(CC)CCCN3CCc4c(n1c1ccccc41)[C@@H]32 [VINPOCETINE]
IC50 [20]: 30000 nM

COC[C@H]1CC[C@H](Oc2nn3c(C4CCOCC4)ncc3c(=O)n2C)CC1
IC50 [4]: 86 nM
IC50 [6]: 7.5 nM

CC(C)(C)n1ncc2c(=O)n(Cc3cccc(F)c3)c(NCc3ccc(F)cn3)nc21
IC50 [20]: 40 nM

CN1C(=O)c2c(nn(Cc3ccc(-c4cccc(F)n4)cc3)c2Nc2ccccc2)N2C1=N[C@@H]1CCC[C@@H]12 [LENRISPODUN]
IC50 [20]: 50 nM

Cn1c(=O)c2[nH]cnc2n(C)c1=O [THEOPHYLLINE ANHYDROUS]
IC50 [20]: 280 nM
